How the values were obtained:
wild oat = assay: Test B pre/postemergence wild oat; type: in vivo, Avena fatua
Procedure, shortened: (§1)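 Response is a visual 0-to-10 score relative to untreated plants, where 0 means no effect and 10 means complete control, taken twelve to sixteen days after application. Treatments went onto soil at planting and onto foliage of 1- to 4-leaf plants, using a surfactant-containing non-phytotoxic solvent.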

pigweed = assay: Test B pre/postemergence pigweed; type: in vivo, Amaranthus retroflexus
Procedure, shortened: as §1

rape = assay: Test B pre/postemergence rape; type: in vivo, Brassica napus
Procedure, shortened: as §1

wheat = assay: Test B pre/postemergence wheat; type: in vivo, Triticum aestivum
Procedure, shortened: as §1

cocklebur = assay: Test B pre/postemergence cocklebur; type: in vivo, Xanthium strumarium
Procedure, shortened: as §1

giant foxtail = assay: Test B pre/postemergence giant foxtail; type: in vivo, Setaria faberii
Procedure, shortened: as §1

corn = assay: Test B pre/postemergence corn; type: in vivo, Zea mays
Procedure, shortened: as §1

morningglory = assay: Test B pre/postemergence morningglory; type: in vivo, Ipomoea hederacea
Procedure, shortened: as §1

crabgrass = assay: Test B pre/postemergence crabgrass; type: in vivo, Digitaria sanguinalis
Procedure, shortened: as §1

surinam grass = assay: Test B pre/postemergence surinam grass; type: in vivo, Brachiaria decumbens
Procedure, shortened: as §1

soybean = assay: Test B pre/postemergence soybean; type: in vivo, Glycine max
Procedure, shortened: as §1

velvetleaf = assay: Test B pre/postemergence velvetleaf; type: in vivo, Abutilon theophrasti
Procedure, shortened: as §1

purple nutsedge = assay: Test B pre/postemergence purple nutsedge; type: in vivo, Cyperus rotundus
Procedure, shortened: as §1

bedstraw = assay: Test B pre/postemergence bedstraw; type: in vivo, Galium aparine
Procedure, shortened: as §1

blackgrass = assay: Test B pre/postemergence blackgrass; type: in vivo, Alopecurus myosuroides
Procedure, shortened: as §1

sugar beet = assay: Test B pre/postemergence sugar beet; type: in vivo, Beta vulgaris
Procedure, shortened: as §1

[1] = Postemergence, Rate 62 g/ha, scale of 0 to 10, 0 is no effect, 10 is complete control
[2] = Postemergence, Rate 500 g/ha, scale of 0 to 10 where 0 is no effect and 10 is complete control
[3] = Preemergence, Rate 62 g/ha, scale 0 to 10 (0 no effect, 10 complete control)
[4] = Preemergence, Rate 125 g/ha, scale 0 to 10, 0 is no effect, 10 is complete control
[5] = Preemergence, Rate 500 g/ha, scale of 0 to 10 where 0 is no effect and 10 is complete control
[6] = Rate 250 g/ha, Postemergence, scale of 0 to 10 where 0 is no effect and 10 is complete control
[7] = Postemergence, Rate 125 g/ha, scale 0 to 10, 0 is no effect, 10 is complete control

CC(=O)OCCCCn1c(=O)on(C(=O)N(c2ccccc2)C(C)C)c1=O [Compound 565]
Wild oats plant response rating (wild oat; [1]): 0
Plant response rating, Wild oats (wild oat; [2]): 0
Wild oats plant response rating (wild oat; [3]): 0
Wild oats plant response rating (wild oat; [4]): 0
Wild oats plant response rating (0 to 10 scale) (wild oat; Preemergence, Rate 250 g/ha): 0
Wild oats plant response rating (wild oat; [5]): 0
Plant response rating, Wild oats (wild oat; [6]): 0
Redroot pigweed plant response rating (pigweed; [1]): 0
Plant response rating, Redroot pigweed (pigweed; [2]): 6
Redroot pigweed plant response rating (pigweed; [3]): 0
Redroot pigweed plant response rating (pigweed; [4]): 0
Redroot pigweed plant response rating (0 to 10 scale) (pigweed; Preemergence, Rate 250 g/ha): 0
Redroot pigweed plant response rating (pigweed; [5]): 9
Plant response rating, Redroot pigweed (pigweed; [6]): 6
Rape plant response rating (rape; [1]): 0
Rape plant response rating (rape; [7]): 0
Plant response rating, Rape (rape; [2]): 0
Rape plant response rating (rape; [3]): 0
Rape plant response rating (rape; [4]): 0
Rape plant response rating (0 to 10 scale) (rape; Preemergence, Rate 250 g/ha): 0
Rape plant response rating (rape; [5]): 0
Plant response rating, Rape (rape; [6]): 0
Wheat plant response rating (wheat; [1]): 0
Plant response rating, Wheat (wheat; [2]): 0
Wheat plant response rating (wheat; [3]): 0
Wheat plant response rating (wheat; [4]): 0
Wheat plant response rating (0 to 10 scale) (wheat; Preemergence, Rate 250 g/ha): 0
Wheat plant response rating (wheat; [5]): 0
Plant response rating, Wheat (wheat; [6]): 0
Cocklebur plant response rating (cocklebur; [1]): 0
Cocklebur plant response rating (cocklebur; [7]): 0
Plant response rating, Cocklebur (cocklebur; [2]): 2
Cocklebur plant response rating (cocklebur; [3]): 0
Cocklebur plant response rating (cocklebur; [4]): 0
Cocklebur plant response rating (0 to 10 scale) (cocklebur; Preemergence, Rate 250 g/ha): 0
Cocklebur plant response rating (cocklebur; [5]): 0
Plant response rating, Cocklebur (cocklebur; [6]): 2
Giant foxtail plant response rating (giant foxtail; [1]): 0
Giant foxtail plant response rating (giant foxtail; [7]): 0
Plant response rating, Giant foxtail (giant foxtail; [2]): 3
Giant foxtail plant response rating (giant foxtail; [3]): 0
Giant foxtail plant response rating (giant foxtail; [4]): 0
Giant foxtail plant response rating (0 to 10 scale) (giant foxtail; Preemergence, Rate 250 g/ha): 0
Giant foxtail plant response rating (giant foxtail; [5]): 2
Plant response rating, Giant foxtail (giant foxtail; [6]): 0
Corn plant response rating (corn; [1]): 0
Corn plant response rating (corn; [7]): 0
Plant response rating, Corn (corn; [2]): 0
Corn plant response rating (corn; [3]): 0
Corn plant response rating (corn; [4]): 0
Corn plant response rating (0 to 10 scale) (corn; Preemergence, Rate 250 g/ha): 0
Corn plant response rating (corn; [5]): 0
Plant response rating, Corn (corn; [6]): 0
Morningglory plant response rating (morningglory; [1]): 3
Morningglory plant response rating (morningglory; [7]): 5
Plant response rating, Morningglory (morningglory; [2]): 9
Morningglory plant response rating (morningglory; [3]): 0
Morningglory plant response rating (morningglory; [4]): 0
Morningglory plant response rating (0 to 10 scale) (morningglory; Preemergence, Rate 250 g/ha): 0
Morningglory plant response rating (morningglory; [5]): 0
Plant response rating, Morningglory (morningglory; [6]): 7
Crabgrass plant response rating (crabgrass; [1]): 0
Crabgrass plant response rating (crabgrass; [7]): 0
Plant response rating, Crabgrass (crabgrass; [2]): 3
Crabgrass plant response rating (crabgrass; [3]): 0
Crabgrass plant response rating (crabgrass; [4]): 0
Crabgrass plant response rating (0 to 10 scale) (crabgrass; Preemergence, Rate 250 g/ha): 0
Crabgrass plant response rating (crabgrass; [5]): 2
Plant response rating, Crabgrass (crabgrass; [6]): 0
B. signalgrass plant response rating (surinam grass; [1]): 0
B. signalgrass plant response rating (surinam grass; [7]): 0
Plant response rating, B. signalgrass (surinam grass; [2]): 0
B. signalgrass plant response rating (surinam grass; [3]): 0
B. signalgrass plant response rating (surinam grass; [4]): 0
B. signalgrass plant response rating (0 to 10 scale, 0 is no effect, 10 is complete control) (surinam grass; Preemergence, Rate 250 g/ha): 0
B. signalgrass plant response rating (surinam grass; [5]): 0
Plant response rating, B. signalgrass (surinam grass; [6]): 0
Soybean plant response rating (soybean; [1]): 2
Plant response rating, Soybean (soybean; [2]): 3
Soybean plant response rating (soybean; [3]): 0
Soybean plant response rating (soybean; [4]): 0
Soybean plant response rating (0 to 10 scale) (soybean; Preemergence, Rate 250 g/ha): 0
Soybean plant response rating (soybean; [5]): 0
Plant response rating, Soybean (soybean; [6]): 3
Velvetleaf plant response rating (velvetleaf; [1]): 3
Plant response rating, Velvetleaf (velvetleaf; [2]): 4
Velvetleaf plant response rating (velvetleaf; [3]): 0
Velvetleaf plant response rating (velvetleaf; [4]): 0
Velvetleaf plant response rating (0 to 10 scale) (velvetleaf; Preemergence, Rate 250 g/ha): 0
Velvetleaf plant response rating (velvetleaf; [5]): 0
Plant response rating, Velvetleaf (velvetleaf; [6]): 4
Nutsedge plant response rating (purple nutsedge; [7]): 0
Plant response rating, Nutsedge (purple nutsedge; [2]): 0
Nutsedge plant response rating (purple nutsedge; [3]): 0
Nutsedge plant response rating (purple nutsedge; [4]): 0
Nutsedge plant response rating (0 to 10 scale) (purple nutsedge; Preemergence, Rate 250 g/ha): 0
Nutsedge plant response rating (purple nutsedge; [5]): 0
Plant response rating, Nutsedge (purple nutsedge; [6]): 0
Bedstraw plant response rating (bedstraw; [1]): 0
Bedstraw plant response rating (bedstraw; [7]): 0
Plant response rating, Bedstraw (bedstraw; [2]): 0
Bedstraw plant response rating (bedstraw; [3]): 0
Bedstraw plant response rating (bedstraw; [4]): 0
Bedstraw plant response rating (0 to 10 scale) (bedstraw; Preemergence, Rate 250 g/ha): 0
Bedstraw plant response rating (bedstraw; [5]): 0
Blackgrass plant response rating (blackgrass; [1]): 0
Blackgrass plant response rating (blackgrass; [7]): 0
Plant response rating, Blackgrass (blackgrass; [2]): 0
Blackgrass plant response rating (blackgrass; [3]): 0
Blackgrass plant response rating (blackgrass; [4]): 0
Blackgrass plant response rating (0 to 10 scale) (blackgrass; Preemergence, Rate 250 g/ha): 0
Blackgrass plant response rating (blackgrass; [5]): 0
Plant response rating, Blackgrass (blackgrass; [6]): 0
Sugarbeets plant response rating (sugar beet; [1]): 0
Plant response rating, Sugarbeets (sugar beet; [2]): 0
Sugarbeets plant response rating (sugar beet; [3]): 0
Sugarbeets plant response rating (sugar beet; [4]): 0
Sugarbeets plant response rating (0 to 10 scale) (sugar beet; Preemergence, Rate 250 g/ha): 0
Sugarbeets plant response rating (sugar beet; [5]): 0
Plant response rating, Sugarbeets (sugar beet; [6]): 0
